Experimental data published in patent US9670226B2, “Sesquiterpenoids” (National Institute of Biological Sciences, Beijing, priority 2014, dated 2017).

What was measured:
phosphorylation of IκBα [1] = assay: LPS induced NF-κB activation: IκBα phosphorylation in RAW264.7 cells (western blot); type: cell-based, mouse
phosphorylation of IκBα [2] = assay: poly(I:C) (TLR3 ligand) triggered IκBα phosphorylation; type: cell-based
phosphorylation of IκBα [3] = assay: TNF induced IκBα phosphorylation in different cell lines; type: cell-based
[4] = tested on: Phosphorylation of IKKα/β; assay: TRAF6-induced IKKα/β phosphorylation in S100 cell lysates from 293T cells; type: biochemical; conditions: S100 cell lysates from 293T cells with recombinant TRAF6
Protocol: TNF receptor-associated factors (TRAFs) are important intermediates in NF-κB signaling pathway. For example, TRAF2 and TRAF5 regulate TNF-α receptor triggered IKK activation, whereas TRAF6 is required for IL-1 induced IKK activation^2. The latter pathway can be reconstituted in cell-free extracts by adding recombinant TRAF6 protein. Phosphorylation of IKKα/β was detected in S100 cell lysates from 293T cells when incubated with recombinant TRAF6.

TAB1 = TAB1 (Homo sapiens, UniProt Q15750); assay: Association with other NF-κB pathway proteins; type: binding
[5] = biological target: T1, IKKβ C46 containing peptide (#1, #2; amino acids 41-53) (Homo sapiens, UniProt O14920); assay: Peptide binding by MALDI-TOF
T1 construct: encompasses amino acids 41-53 of human IKKβ; made in house; host or cells: chemical peptide synthesis
Protocol: (§1) This peptide was tested for binding to 223 and probe by using MALDI-TOF (Matrix-Assisted […] Desorption/Ionization Time of Flight). m/z values at 2,047.978 and 2,479.259 were well matched with the calculated weights of #1+223 and #1+Probe, respectively. […] As expected, the peptide #2 containing amino acids 41-53 of human IKKβ interacted with both 223 and probe.

[6] = tested on: IKKβ C46 containing peptide (#1, #2; amino acids 41-53); assay: Peptide binding by MALDI-TOF; parameters: species or system human
Protocol: as §1

IKKβ = biological target: T2, IKKβ (Homo sapiens, UniProt O14920); assay: IKKβ kinase inhibition; type: biochemical; conditions: read-out: IC50 against IKKβ
T2 sequence (O14920 1-756): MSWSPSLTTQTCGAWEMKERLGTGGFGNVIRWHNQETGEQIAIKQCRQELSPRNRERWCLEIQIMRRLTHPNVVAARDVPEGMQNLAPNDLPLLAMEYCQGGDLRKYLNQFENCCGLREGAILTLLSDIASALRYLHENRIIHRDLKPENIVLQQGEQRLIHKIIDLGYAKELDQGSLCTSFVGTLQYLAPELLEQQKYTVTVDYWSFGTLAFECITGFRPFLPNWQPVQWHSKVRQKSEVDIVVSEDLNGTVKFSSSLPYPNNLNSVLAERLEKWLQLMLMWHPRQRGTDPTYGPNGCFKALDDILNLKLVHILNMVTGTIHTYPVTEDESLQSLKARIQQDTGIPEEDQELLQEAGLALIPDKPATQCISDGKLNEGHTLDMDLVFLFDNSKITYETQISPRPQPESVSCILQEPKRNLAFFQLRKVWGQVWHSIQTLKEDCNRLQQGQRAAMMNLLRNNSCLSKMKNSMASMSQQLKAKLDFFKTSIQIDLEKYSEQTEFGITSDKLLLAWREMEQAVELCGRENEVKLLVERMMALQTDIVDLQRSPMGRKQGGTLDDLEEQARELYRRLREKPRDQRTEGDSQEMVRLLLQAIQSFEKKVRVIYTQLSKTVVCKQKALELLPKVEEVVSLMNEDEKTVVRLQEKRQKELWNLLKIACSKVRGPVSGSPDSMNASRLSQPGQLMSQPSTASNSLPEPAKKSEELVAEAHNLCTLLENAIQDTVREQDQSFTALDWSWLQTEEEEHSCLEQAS
Text: To further explore how (+)-ainsliadimer A inactivates IKKα/β, we conducted the molecular dynamics (MD) simulations using the first crystal structure of IKKβ^29 to sample the conformational states of IKKβ upon 223 binding. […] We next asked whether 223 could directly affect IKKβ kinase activity.

[7] = tested on: cervical cancer HeLa cells; assay: Cancer cell survival; type: cell-based, human
glioblastoma T98G cells = assay: Cancer cell survival; type: cell-based, human; conditions: different concentration
cancer cells = assay: Cell death in cancer cells (cell line not given); type: cell-based; conditions: addition of DTT
[8] = tested on: panel of structurally related kinases

Chain of TAB1 (Q15750 whole entry, species assumed, the tested form may be a part): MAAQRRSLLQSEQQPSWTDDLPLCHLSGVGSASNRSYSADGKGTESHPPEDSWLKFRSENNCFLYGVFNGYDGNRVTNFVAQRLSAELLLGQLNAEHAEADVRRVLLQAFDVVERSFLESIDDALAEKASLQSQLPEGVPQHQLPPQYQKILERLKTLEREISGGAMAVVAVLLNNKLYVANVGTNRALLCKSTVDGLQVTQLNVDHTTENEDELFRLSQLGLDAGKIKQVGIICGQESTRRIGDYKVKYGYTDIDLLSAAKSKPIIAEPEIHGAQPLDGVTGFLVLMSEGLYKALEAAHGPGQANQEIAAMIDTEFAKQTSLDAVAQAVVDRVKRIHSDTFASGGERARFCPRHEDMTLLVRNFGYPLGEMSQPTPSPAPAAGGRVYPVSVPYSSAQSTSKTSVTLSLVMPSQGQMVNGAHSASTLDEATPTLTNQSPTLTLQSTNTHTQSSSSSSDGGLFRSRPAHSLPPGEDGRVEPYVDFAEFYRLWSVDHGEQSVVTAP

C=C1C(=O)O[C@@H]2[C@@H]3[C@@H](C[C@@]4(O)[C@]3(O)CC[C@]43C(=O)C[C@H]4C(=C)CC[C@H]5C(=C)C(=O)O[C@@H]5[C@H]43)C(=C)CC[C@@H]12 [Compound 223, (+)-Ainsliadimer A]
inhibitory effect against LPS-induced NF-κB activation in comparison with BMS-345541 (phosphorylation of IκBα [1]; RAW264.7 cells): much stronger inhibitory effect | concentration that effectively blocks phosphorylation of IκBα (phosphorylation of IκBα [1]; RAW264.7 cells, pre-treatment, LPS for 10 or 20 minutes): about 8 μM | phosphorylation of IκBα (phosphorylation of IκBα [1]; Raw 264.7 cells pre-incubated with 4 μM for 2 h, 20 ng/ml LPS, 20 minutes, western blot): effectively blocked | phosphorylation of IκBα triggered by poly(I:C) (phosphorylation of IκBα [2]): markedly suppressed | TNF induced phosphorylation of IκBα (phosphorylation of IκBα [3]): significantly inhibited | TRAF6-induced phosphorylation of IKKα/β [4]: completely abolished | association with TAB1 (TAB1): no association | binding to peptide #1 [5]: could bind | interaction with peptide #2 [6]: interacted | IC50 (IKKβ): 76 nM | inhibition of cell survival (cell viability by ATP levels) ([7]; 48 hours): dose response inhibition | cell death ([7]; different concentration): Dramatic cell death | cell death (glioblastoma T98G cells): Dramatic cell death | compound-triggered inhibition of cell survival (cancer cells): completely abolished | selectivity against a panel of structurally related kinases [8]: excellent selectivity
